Here are results for 7 molecules from patent US6020340A, “Imidazopyridines” (Byk Gulden Lomberg Chemische Fabrik GmbH, priority 1996, dated 2000).

For the experiment, the system named is PDE IV. The experiment is described as follows: Inhibition of PDE IV activity (method of Bauer and Schwabe, adapted to microtiter plates). Format: biochemical.

On to `COc1ccc(-c2nc3cnccc3[nH]2)c2c1OC1(C=C2)CCCC1` [Compound 5, 2-[8-Methoxy-2,2-tetramethylene-1[2H]chromen-5-yl]imidazo[4,5-c]pyridine], for which the “Inhibition of PDE IV activity, -log IC50” value came out at 6.76. To `COc1ccc(-c2nc3ncccc3[nH]2)c2c1OC1(C=C2)CCCC1` [Compound 3, 2-[8-Methoxy-2,2-tetramethylene-1[2H]chromen-5-yl]imidazo[4,5-b]pyridine] belongs 5.83. In the case of `COc1ccc(-c2nc3ncccc3[nH]2)c2cc(C(C)C)oc12` [Compound 1, 2-[7-Methoxy-2-(1-methylethyl)benzofuran-4-yl]imidazo[4,5-b]pyridine], the “Inhibition of PDE IV activity, -log IC50” value is reported as 7.41.

With `CC(C)c1cc2c(-c3nc4ncccc4[nH]3)ccc(OC(F)F)c2o1` [Compound 2, 2-[7-Difluoromethoxy-2(1-methylethyl)benzofuran-4yl]imidazo[4,5-b]pyridine], the “Inhibition of PDE IV activity, -log IC50” value worked out at 8.14. In the case of `COc1ccc(-c2nc3cnccc3[nH]2)c2cc(C(C)C)oc12` [Compound 7], the “Inhibition of PDE IV activity, -log IC50” value was determined as 8.09.

Take `CC(C)c1cc2c(-c3nc4cnccc4[nH]3)ccc(OC(F)F)c2o1` [Compound 6, 2-[7-Difluoromethoxy-2-(1-methylethyl)benzofuran-4-yl]imidazo[4,5-c]pyridine]: the “Inhibition of PDE IV activity, -log IC50” value stood at 8.38. For `COc1ccc(-c2nc3cnccc3[nH]2)c2cc(C3CCCC3)oc12` [Compound 4, 2-(2Cyclopentyl-7-methoxy-benzofuran-4-yl)imidazo[4,5-c]pyridine], the “Inhibition of PDE IV activity, -log IC50” value came out at 7.74.
